Laboratory results as given in US20240360148A1 (SUVALENT THERAPEUTICS, INC., priority 2021, published 2024).

Experiments:
[1] = Plasma protein binding, equilibrium dialysis, mouse plasma; format: in vitro ADME; details: 5 hours at 37° C., read-out: PPB % bound Mouse (converted)
Method: (§1) The compounds of interest were evaluated for various PK parameters. Specifically CACO permeability/efflux and plasma protein binding (PPP) were determined. Stock solutions were prepared at 10 mM in DMSO for test and reference compounds. Aliquots of the stock solution were diluted to 500× of final concentration (0.5 mM) with DMSO, then further diluted upon the addition of bank PE3-buffer to 20× of final concentration (20 μM). Then test and reference compounds were prepared in plasma at 1 μM. For 0 hour incubation: 25 μL of the plasma spiked with test and reference compounds was transferred into a 96-well sample preparation plate, and then 25 μL blank PB-buffer was added. The samples were quenched by 200 μL of IS solution to prepare [Initial]0h samples. For 5 hours incubation: 100 μL of the plasma spiking with test and reference compounds was loaded on donor side, and 100 μL of blank PB-buffer were loaded on receiver side of the equilibrium dialysis device. Samples were incubated in an air-bath shaker (60 rpm) for 5 hours at 37° C. After 5 hours incubation, 25 μL of samples (from both the donor sides and receiver sides of the dialysis apparatus) was aspirated and added into new sample preparation plates, separately. 25 μL of blank PB-buffer was added to donor side samples and 25 μL of blank plasma was added to receiver side samples to balance the matrix. The samples were quenched with 200 μL of IS solution. The assay plate was shaken at the vibrator (Hangzhou Allsheng, MX100-4A) for 10 min (600 rpm) and then centrifuged at 5,594×g for 15 min (Thermo Multifuge×3R). An aliquot of the 50 μL supernatant was taken from each well and diluted by 50 μL distilled water, then analyzed by UPLC-MS/MS.

[2] = Plasma protein binding, equilibrium dialysis, human plasma; format: in vitro ADME; details: 5 hours at 37° C., read-out: PPB % bound Human (converted)
Method: as §1

[3] = system: sumoylation levels (SUMO 2/3 conjugates) in HCT-116 cells; assay: HCT-116 4 Hour Cell Assay (Western, SUMO 2/3 conjugates); format: cell-based; details: Homo sapiens, HCT-116, 4 h, 4 h treatment, Anti-Sumo 2-3 immunoblot, read-out: HCT-116 Western 4 h IC50 (μM) Ave
How it was run: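 Cells treated 4 h with 11 three-fold dilutions from 25 μM; lysed in RIPA with NEM and Benzonase. Non-reducing SDS-PAGE immunoblot with anti-SUMO 2/3 mAb, IRDye fluorescent detection; conjugate signal normalized to total protein stain, IC50 from quantified bands.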

SAE1 [4] = target: SAE1 (Homo sapiens (Human), UniProt Q9UBE0+Q9UBT2); assay: SAE High Throughput Biochemical Assay (HTRF), 15 min preincubation; details: read-out: 15 min preincubation HTRF IC50 (μM) Ave, SAE1 12.5 nM, ATP 100 μM
How it was run: (§2)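 SAE1 (12.5 nM) was preincubated with compound for 15 min at RT in HEPES pH 7.5, 0.1% BSA, 10 mM MgCl2. The reaction was then started with SUMO-GST and UBC9-His (40 nM each) plus 100 μM ATP for 45 min. After KF stop, HTRF (anti-GST-XL665/anti-His-EuK) was read at 2 h and overnight; some compounds were tested singly at 25 micromolar as percent of control.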

SAE1 [5] = target: SAE1 (Homo sapiens (Human), UniProt Q9UBT2); assay: as above; details: SAE1 12.5 nM, ATP 100 μM
How it was run: as §2

SAE1 (Homo sapiens (Human), UniProt Q9UBT2), sequence (Q9UBE0 whole entry): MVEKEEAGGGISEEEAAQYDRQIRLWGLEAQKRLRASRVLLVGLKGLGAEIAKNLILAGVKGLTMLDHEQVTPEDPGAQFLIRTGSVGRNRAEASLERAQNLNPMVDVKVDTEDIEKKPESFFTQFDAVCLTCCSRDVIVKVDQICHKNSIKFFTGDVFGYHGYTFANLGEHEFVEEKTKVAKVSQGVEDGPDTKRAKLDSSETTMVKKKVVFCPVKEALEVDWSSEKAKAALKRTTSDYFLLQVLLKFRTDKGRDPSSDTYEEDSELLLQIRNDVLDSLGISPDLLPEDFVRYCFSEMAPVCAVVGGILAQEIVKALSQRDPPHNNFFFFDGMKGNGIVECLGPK
SAE1 (Homo sapiens (Human), UniProt Q9UBT2), sequence (Q9UBT2 whole entry): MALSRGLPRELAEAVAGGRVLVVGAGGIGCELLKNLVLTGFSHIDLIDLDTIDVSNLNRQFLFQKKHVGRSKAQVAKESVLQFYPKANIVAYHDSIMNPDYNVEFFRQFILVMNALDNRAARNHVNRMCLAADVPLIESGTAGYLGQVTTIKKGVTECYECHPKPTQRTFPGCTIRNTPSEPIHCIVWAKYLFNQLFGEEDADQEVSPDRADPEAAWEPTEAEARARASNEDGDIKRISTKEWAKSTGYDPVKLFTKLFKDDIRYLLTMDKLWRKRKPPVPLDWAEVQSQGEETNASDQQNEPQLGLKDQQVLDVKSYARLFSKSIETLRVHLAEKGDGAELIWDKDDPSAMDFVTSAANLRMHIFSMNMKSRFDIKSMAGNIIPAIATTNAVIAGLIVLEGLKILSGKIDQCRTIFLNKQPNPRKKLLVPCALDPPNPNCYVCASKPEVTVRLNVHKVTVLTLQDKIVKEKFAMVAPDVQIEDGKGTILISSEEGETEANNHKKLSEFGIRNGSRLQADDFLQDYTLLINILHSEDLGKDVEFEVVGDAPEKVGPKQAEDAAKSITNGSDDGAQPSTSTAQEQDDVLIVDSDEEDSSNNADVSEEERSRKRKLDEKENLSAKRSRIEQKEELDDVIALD
SAE1 (Homo sapiens (Human), UniProt Q9UBE0+Q9UBT2), sequence (Q9UBE0 whole entry): as the sequence (Q9UBE0 whole entry) above
SAE1 (Homo sapiens (Human), UniProt Q9UBE0+Q9UBT2), sequence (Q9UBT2 whole entry): as the sequence (Q9UBT2 whole entry) above

fraction unbound at 5 h, 1 μM [1] | fraction unbound at 5 h, 1 μM [2] | IC50 [3] [µM] | Structure (SMILES) | IC50 (SAE1 [4]) [µM] | IC50 (SAE1 [5]) [µM]
< 0.001 | 0.002 | – | C=CC(=O)N1Cc2sc(Cl)cc2[C@H](c2ccccc2-c2cn(CC)nc2C(F)(F)F)C1 [Comp. Ex. 1, reference compound] | – | –
< 0.003 | 0.008 | – | CCn1cc(-c2ccccc2[C@@H]2CN(C(=O)/C=C/CN(C)C)Cc3sc(Cl)cc32)c(C(F)(F)F)n1 [Comp. Ex. 2, reference compound] | – | –
0.021 | – | 0.057 | C=CC(=O)N1Cc2sc(C#N)cc2[C@H](c2cccc(F)c2-c2cn(CC)nc2C(F)(F)F)C1 [Compound 227] | 0.12 | –
– | – | 1.95 | CCn1cc(-c2ccccc2[C@@H]2CN(C(=O)/C=C/COC)Cc3sc(C#N)cc32)c(C(F)(F)F)n1 [Example 7, (S, E)-4-(2-(1-Ethyl-3-(trifluoromethyl)-1 H-pyrazol-4-yl)phenyl)-6-(4-methoxybut-2-enoyl)-4,5,6,7-tetrahydrothieno[2,3-c]pyridine-2-carbonitrile] | – | 9.31
– | – | 0.214 | CCn1cc(-c2ccccc2[C@@H]2CN(C(=O)/C=C/C(F)(F)F)Cc3sc(C#N)cc32)c(C(F)(F)F)n1 [Example 22, (S, E)-4-(2-(1-ethyl-3-(trifluoromethyl)-1 H-pyrazol-4-yl)phenyl)-6-(4,4,4-trifluorobut-2-enoyl)-4,5,6,7-tetrahydrothieno[2,3-c]pyridine-2-carbonitrile] | – | 0.39
– | – | 2.72 | CCn1cc(-c2ccccc2[C@@H]2CN(C(=O)/C=C/[C@@H](C)N)Cc3sc(C#N)cc32)c(C(F)(F)F)n1 [Example 47, (S)-6-((R, E)-4-aminopent-2-enoyl)-4-(2-(1-ethyl-3-(trifluoromethyl)-1 H-pyrazol-4-yl)phenyl)-4,5,6,7-tetrahydrothieno[2,3-c]pyridine-2-carbonitrile] | – | 3.37
– | – | 0.197 | [2H]C([2H])([2H])N(C/C=C/C(=O)N1Cc2sc(C#N)cc2[C@H](c2cccc(F)c2-c2cn(CC)nc2C(F)(F)F)C1)C([2H])([2H])[2H] [Example 48, (S,E)-6-(4-(bis(methyl-d3)amino)but-2-enoyl)-4-(2-(1-ethyl-3-(trifluoromethyl)-1 H-pyrazol-4-yl)-3-fluorophenyl)-4,5,6,7-tetrahydrothieno[2,3-c]pyridine-2-carbonitrile] | – | 1.12
– | – | 3.05 | CCn1cc(-c2ccccc2[C@@H]2CN(C(=O)/C=C/[C@H]3CCCN3C)Cc3sc(C#N)cc32)c(C(F)(F)F)n1 [Example 90, (S)-4-(2-(1-Ethyl-3-(trifluoromethyl)-1 H-pyrazol-4-yl)phenyl)-6-((E)-3-((R)-1-methylpyrrolidin-2-yl)acryloyl)-4,5,6,7-tetrahydrothieno[2,3-c]pyridine-2-carbonitrile] | – | 5.68
– | – | 1.16 | CCn1cc(-c2ccccc2[C@@H]2CN(C(=O)/C=C/CNC3(C)CC3)Cc3sc(C#N)cc32)c(C(F)(F)F)n1 [Example 94, (S,E)-4-(2-(1-Ethyl-3-(trifluoromethyl)-1H pyrazol-4-yl)phenyl)-6-(4-((1-methylcyclopropyl)amino)but-2-enoyl)-4,5,6,7-tetrahydrothieno[2,3-c]pyridine-2-carbonitrile] | – | 1.86
– | – | 3.12 | CCn1cc(-c2ccccc2[C@@H]2CN(C(=O)C#CC(C)(C)N)Cc3sc(C#N)cc32)c(C(F)(F)F)n1 [Example 134, (S)-6-(4-Amino-4-methylpent-2-ynoyl)-4-(2-(1-ethyl-3-(trifluoromethyl)-1H-pyrazol-4-yl)phenyl)-4,5,6,7-tetrahydrothieno[2,3-c]pyridine-2-carbonitrile] | – | 0.32
– | – | 0.321 | CC(C)n1cc(-c2ccccc2[C@@H]2CN(C(=O)/C=C/CN(C)C)Cc3sc(C#N)cc32)c(C(F)(F)F)n1 [Example 175] | – | 3.05
– | – | 0.69 | COc1cncnc1-n1cc(-c2ccccc2[C@@H]2CN(C(=O)/C=C/CN(C)C)Cc3sc(C#N)cc32)c(C(F)(F)F)n1 [Example 178, (S,E)-6-(4-(dimethylamino)but-2-enoyl)-4-(2-(1-(5-methoxypyrimidin-4-yl)-3-(trifluoromethyl)-1H pyrazol-4-yl)phenyl)-4,5,6,7-tetrahydrothieno[2,3-c]pyridine-2-carbonitrile] | – | 16.7
– | – | 0.356 | CCn1cc(-c2ccccc2C2CN(C(=O)/C=C/CN(C)C)Cc3sc(C#N)c(Cl)c32)c(C(F)(F)F)n1 (stereo not drawn) [Example 214, (E)-3-chloro-6-(4-(dimethylamino)but-2-enoyl)-4-(2-(1-ethyl-3-(trifluoromethyl)-1 H-pyrazol-4-yl)phenyl)-4,5,6,7-tetrahydrothieno[2,3-c]pyridine-2-carbonitrile] | – | 3.97
– | – | 0.1 | CNC/C=C/C(=O)N1Cc2sc(C#N)c(C)c2[C@H](c2cccc(F)c2-c2cn(C)nc2C(F)(F)F)C1 [Example 216, (S,E)-4-(3-fluoro-2-(1-methyl-3-(trifluoromethyl)-1 H-pyrazol-4-yl)phenyl)-3-methyl-6-(4-(methylamino)but-2-enoyl)-4,5,6,7-tetrahydrothieno[2,3-c]pyridine-2-carbonitrile] | – | 0.18
– | – | 0.207 | [2H]C([2H])([2H])N(C/C=C/C(=O)N1Cc2sc(C#N)cc2[C@H](c2ccccc2-c2cn(CC)nc2C(F)(F)F)C1)C([2H])([2H])[2H] [Example 245, (S,E)-6-(4-(bis(methyl-d3)amino)but-2-enoyl)-4-(2-(1-ethyl-3-(trifluoromethyl)-1 H-pyrazol-4-yl)phenyl)-4,5,6,7-tetrahydrothieno[2,3-c]pyridine-2-carbonitrile] | – | 4.15
– | – | 0.169 | CCn1cc(-c2c(F)cccc2[C@@H]2CN(C(=O)/C=C/[C@@H]3CCCN3)Cc3sc(C#N)c(C)c32)c(C(F)(F)F)n1 [Example 249, (S)-4-(2-(1-ethyl-3-(trifluoromethyl)-1 H-pyrazol-4-yl)-3-fluorophenyl)-3-methyl-6-((E)-3-((S)-pyrrolidin-2-yl)acryloyl)-4,5,6,7-tetrahydrothieno[2,3-c]pyridine-2-carbonitrile] | – | 0.14
